In US20250375453A1, “HIGH-EFFICIENCY ANTIMICROBIAL COMPOSITION” (CM4CURE S.A., priority 2023, published 2025):

Columns and labels:
[1] = system: Pseudomonas aeruginosa (ATCC 15442); assay: Real-time microcalorimetric measurement of bacterial metabolic activity (heat flow, Calscreener); type: cell-based; details: chlorhexidine digluconate alone, tested 1-24 mg/L, TSB, 37 C, 24 h or more
Description: Pseudomonas aeruginosa (ATCC 15442) was grown overnight in TSB (tryptic soy broth) medium, before being diluted 1×10^7 fold in fresh TSB. Subsequently […] aliquots of diluted bacteria suspensions were respectively supplemented with 1, 2, 4, 6, 12 and 24 mg/L of chlorhexidine (digluconate solution, 20% in H2O, Merck). The aqueous solution of chlorhexidine was kept refrigerated according to the manufacturer's technical sheet. Chlorhexidine or mQH2O as a vehicle were added to the bacterial suspensions to obtain the given concentrations followed by a brief vortexing. Bacterial aliquots were then distributed in the dedicated non-activated inserts of a 48-well plate and grown for 24h or more under static conditions at 37 C using Calscreener technology to measure bacterial growth and metabolic activity in Real-Time as described in https://cordis.europa.eu/project/id/784514.
For the study of the combination of chlorhexidine and triafluocyl aforementioned diluted bacterial suspensions were supplemented with either chlorhexidine alone (1, 2, 4, 6, 12 mg/L) or mixed with triafluocyl (20 mg/L, Polpharma). Triafluocyl was stored in absolute ethanol in the refrigerator at a concentration of 3 mg/mL. Triafluocyl, chlorhexidine or both, and ethanol as a vehicle were added to the bacterial suspensions to obtain the given concentrations.
Pseudomonas aeruginosa (ATCC 15442) was grown overnight in TSB (tryptic soy broth) medium, before being diluted 1×10^7 fold in fresh TSB. Subsequently […] aliquots of diluted bacteria suspensions were respectively supplemented with […] of alexidine dihydrochloride (stock solution of 3 mg/mL in ethanol, Merck). […] The stock solutions of alexidine and fluometacyl were kept frozen according to the manufacturer's technical sheet. Alexidine alone or with fluometacyl, and ethanol as a vehicle were added to the bacterial suspensions to obtain the given concentrations followed by a brief vortexing. […]

[2] = system: Staphylococcus aureus (MRSA, ATCC 6538); assay: as above; type: cell-based
Description: Staphylococcus aureus (MRSA, ATCC 6538) was grown overnight in TSB (tryptic soy broth) medium, before being diluted 1×10^6 fold in fresh TSB. Subsequently […] aliquots of diluted bacteria suspensions were respectively supplemented with 1 and 2 mg/L of chlorhexidine (digluconate solution, 20% in H2O, Merck). […] The aqueous solution of chlorhexidine and the ethanol-based solution of triafluocyl were kept refrigerated. Chlorhexidine, triafluocyl or both, and ethanol as a vehicle were added to the bacterial suspensions to obtain the given concentrations followed by a brief vortexing. Bacterial aliquots were then distributed in the dedicated non-activated inserts of a 48-well plate and grown for 24 h or more under static conditions at 37 C using Calscreener technology to measure bacterial growth and metabolic activity in Real-Time as described in https://cordis.europa.eu/project/id/784514.
Staphylococcus aureus (MRSA, ATCC 6538) was grown overnight in TSB (tryptic soy broth) medium, before being diluted 1×10^6 fold in fresh TSB. Subsequently […] aliquots of diluted bacteria suspensions were respectively supplemented with 0.25, 0.5 and 1 μg/mL of chlorhexidine (digluconate solution, 20% in H2O, Merck) or alexidine dihydrochloride (stock solution of 3 mg/mL in ethanol, Merck).
The aqueous solution of chlorhexidine and the ethanol-based solution of alexidine were kept refrigerated. Chlorhexidine, alexidine, and ethanol as a vehicle were added to the bacterial suspensions to obtain the given concentrations followed by a brief vortexing. Bacterial aliquots were then distributed in the dedicated non-activated inserts of a 48-well plate and grown for 24 h or more under static conditions at 37 C using Calscreener technology to measure bacterial growth and metabolic activity in Real-Time as described in https://cordis.europa.eu/project/id/784514.
Staphylococcus aureus (MRSA, ATCC 6538) was grown overnight in TSB (tryptic soy broth) medium, before being diluted 1×10^6 fold in fresh TSB. Subsequently […] aliquots of diluted bacteria suspensions were respectively supplemented with […] of alexidine dihydrochloride (stock solution of 3 mg/mL in ethanol, Merck). […] The ethanol-based solutions of alexidine and fluometacyl were stored at −20° C.
Alexidine alone or with fluometacyl, and ethanol as a vehicle were added to the bacterial suspensions to obtain the given concentrations followed by a brief vortexing. Bacterial aliquots were then distributed in the dedicated non-activated inserts of a 48-well plate and grown for 24 h or more under static conditions at 37 C using Calscreener technology to measure bacterial growth and metabolic activity in Real-Time.

[H]/N=C(\N/C(=N/[H])NCCCCCCNC(=N)NC(=N)Nc1ccc(Cl)cc1)Nc1ccc(Cl)cc1 [Chlorhexidine, chlorhexidine]
concentration that fully inhibits bacterial proliferation [1]: 24 mg/L | effect on metabolic activity (heat flow) ([2]; chlorhexidine 1 mg/L alone): strong shift in a metabolic activity | effect on metabolic activity (heat flow) ([2]; chlorhexidine 1 mg/mL alone (Example 3)): strong shift in a metabolic activity | concentration with full growth inhibition or bactericidal effect ([2]; chlorhexidine digluconate alone, tested 1 and 2 mg/L): 2 mg/L
